Experimental data from PMC9276671, “A first-in-human Phase I dose-escalation trial of the novel therapeutic peptide, ALM201, demonstrates a favourable safety profile in unselected patients with ovarian cancer and other advanced solid tumours” (British Journal of Cancer, 2022).
No end group written: not given here.

Assay: Plasma pharmacokinetics of ALM201 in Phase I patients (validated LC-MS/MS, Phoenix WinNonlin)
Conditions: human, plasma, sc; for Tmax: median; for Tmax / AUC(0-t) / Cmax: plasma LC-MS/MS; for AUC(0-t): AUC0-t; for AUC(0-t) / Cmax: Gmean (CV)
[1] = 300 mg, 300 mg SC, day 1 cycle 1, n = 3
[2] = 300 mg, 300 mg SC, day 3 cycle 1, n = 3
[3] = 300 mg, 300 mg SC, day 18 cycle 2, n = 3
[4] = 300 mg, 300 mg SC, day 18 cycle 4, n = 1
[5] = 300 mg, 300 mg SC, day 18 cycle 6, n = 1

## IRQQPRDPPTETLELEVSPDPAS [ALM201]
200 mg, Plasma concentration, geometric mean (CV%), 200 mg SC, day 1 cycle 1, 6 h after dosing, n = 4, LC-MS/MS
  level at 6 h: 518 ng/mL
200 mg, Plasma concentration, geometric mean (CV%), 200 mg SC, day 3 cycle 1, 0.5 h after dosing, n = 4, LC-MS/MS
  level at 0.5 h: 1090 ng/mL
200 mg, Plasma concentration, geometric mean (CV%), 200 mg SC, day 3 cycle 1, 1 h after dosing, n = 3, LC-MS/MS
  level at 1 h: 1410 ng/mL
200 mg, Plasma concentration, geometric mean (CV%), 200 mg SC, day 3 cycle 1, 1.5 h after dosing, n = 4, LC-MS/MS
  level at 1.5 h: 1320 ng/mL
200 mg, Plasma concentration, geometric mean (CV%), 200 mg SC, day 3 cycle 1, 2 h after dosing, n = 4, LC-MS/MS
  level at 2 h: 1540 ng/mL
200 mg, Plasma concentration, geometric mean (CV%), 200 mg SC, day 3 cycle 1, 3.5 h after dosing, n = 4, LC-MS/MS
  level at 3.5 h: 1250 ng/mL
200 mg, Plasma concentration, geometric mean (CV%), 200 mg SC, day 3 cycle 1, 5 h after dosing, n = 4, LC-MS/MS
  level at 5 h: 958 ng/mL
200 mg, Plasma concentration, geometric mean (CV%), 200 mg SC, day 18 cycle 1, 0.5 h after dosing, n = 3, LC-MS/MS
  level at 0.5 h: 811 ng/mL
200 mg, Plasma concentration, geometric mean (CV%), 200 mg SC, day 18 cycle 1, 1 h after dosing, n = 3, LC-MS/MS
  level at 1 h: 1260 ng/mL
200 mg, Plasma concentration, geometric mean (CV%), 200 mg SC, day 18 cycle 1, 1.5 h after dosing, n = 2 values (CV NC), LC-MS/MS
  level at 1.5 h: 1670 ng/mL
200 mg, Plasma concentration, geometric mean (CV%), 200 mg SC, day 18 cycle 1, 2 h after dosing, n = 2 values (CV NC), LC-MS/MS
  level at 2 h: 1580 ng/mL
200 mg, Plasma concentration, geometric mean (CV%), 200 mg SC, day 18 cycle 1, 3.5 h after dosing, n = 3, LC-MS/MS
  level at 3.5 h: 1130 ng/mL
200 mg, Plasma concentration, geometric mean (CV%), 200 mg SC, day 18 cycle 1, 5 h after dosing, n = 3, LC-MS/MS
  level at 5 h: 890 ng/mL
200 mg, Plasma concentration, geometric mean (CV%), 200 mg SC, day 18 cycle 2, 0.5 h after dosing, n = 2, LC-MS/MS
  level at 0.5 h: 1210 ng/mL
200 mg, Plasma concentration, geometric mean (CV%), 200 mg SC, day 18 cycle 2, 1 h after dosing, n = 2, LC-MS/MS
  level at 1 h: 1470 ng/mL
200 mg, Plasma concentration, geometric mean (CV%), 200 mg SC, day 18 cycle 2, 1.5 h after dosing, n = 2, LC-MS/MS
  level at 1.5 h: 1890 ng/mL
200 mg, Plasma concentration, geometric mean (CV%), 200 mg SC, day 18 cycle 2, 2 h after dosing, n = 2, LC-MS/MS
  level at 2 h: 1360 ng/mL
200 mg, Plasma concentration, geometric mean (CV%), 200 mg SC, day 18 cycle 2, 3.5 h after dosing, n = 2, LC-MS/MS
  level at 3.5 h: 911 ng/mL
200 mg, Plasma concentration, geometric mean (CV%), 200 mg SC, day 18 cycle 2, 5 h after dosing, n = 2, LC-MS/MS
  level at 5 h: 690 ng/mL
200 mg, Plasma concentration, geometric mean (CV%), 200 mg SC, day 18 cycle 4, 0.5 h after dosing, n = 2, LC-MS/MS
  level at 0.5 h: 1080 ng/mL
200 mg, Plasma concentration, geometric mean (CV%), 200 mg SC, day 18 cycle 4, 1 h after dosing, n = 2, LC-MS/MS
  level at 1 h: 1410 ng/mL
200 mg, Plasma concentration, geometric mean (CV%), 200 mg SC, day 18 cycle 4, 1.5 h after dosing, n = 2, LC-MS/MS
  level at 1.5 h: 1150 ng/mL
200 mg, Plasma concentration, geometric mean (CV%), 200 mg SC, day 18 cycle 4, 2 h after dosing, n = 2, LC-MS/MS
  level at 2 h: 1500 ng/mL
200 mg, Plasma concentration, geometric mean (CV%), 200 mg SC, day 18 cycle 4, 3.5 h after dosing, n = 2, LC-MS/MS
  level at 3.5 h: 1310 ng/mL
200 mg, Plasma concentration, geometric mean (CV%), 200 mg SC, day 18 cycle 4, 5 h after dosing, n = 2, LC-MS/MS
  level at 5 h: 975 ng/mL
200 mg, 200 mg SC, day 1 cycle 1, n = 4
  Tmax: 2.5 h
200 mg, 200 mg SC, day 3 cycle 1, n = 4
  Tmax: 2 h
200 mg, 200 mg SC, day 18 cycle 1, n = 3
  Tmax: 2.03 h
200 mg, 200 mg SC, day 18 cycle 2, n = 2
  Tmax: 1.54 h
200 mg, 200 mg SC, day 18 cycle 4, n = 2
  Tmax: 1.57 h
[1]
  AUC(0-t): 11900 ng·h/mL
  Cmax: 2550 ng/mL
[2]
  AUC(0-t): 12500 ng·h/mL
  Cmax: 2690 ng/mL
[3]
  AUC(0-t): 10400 ng·h/mL
  Cmax: 2780 ng/mL
[4]
  AUC(0-t): 8600 ng·h/mL
  Cmax: 2140 ng/mL
[5]
  AUC(0-t): 26700 ng·h/mL
  Cmax: 6830 ng/mL
300 mg, 300 mg SC, day 18 cycle 1, n = 3
  Cmax: 2880 ng/mL
300 mg, Plasma concentration, geometric mean (CV%), 300 mg SC, day 1 cycle 1, 0.25 h after dosing, n = 3, LC-MS/MS
  level at 0.25 h: 1050 ng/mL
300 mg, Plasma concentration, geometric mean (CV%), 300 mg SC, day 1 cycle 1, 0.75 h after dosing, n = 3, LC-MS/MS
  level at 0.75 h: 1970 ng/mL
300 mg, Plasma concentration, geometric mean (CV%), 300 mg SC, day 1 cycle 1, 1.5 h after dosing, n = 3, LC-MS/MS
  level at 1.5 h: 2250 ng/mL
